Tests used:
Type in all cases: in vivo
[1] = test system: barnyardgrass (Echinochloa crus-galli); assay: Test A pre-/postemergence plant response
Outline: (§1)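 Seeds sown in loam–sand blend; test chemicals in non-phytotoxic solvent with surfactant applied preemergence as directed soil spray and, concurrently, postemergence to plants 2–10 cm tall at one- to two-leaf stage. Greenhouse ~10 days, then visual injury rating vs untreated controls on 0–100 scale (0 = no effect, 100 = complete control).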

[2] = test system: large crabgrass (Digitaria sanguinalis); assay: Test A pre-/postemergence plant response
Outline: as §1

[3] = test system: morningglory (Ipomoea coccinea); assay: Test A pre-/postemergence plant response
Outline: as §1

[4] = test system: pigweed (Amaranthus retroflexus); assay: Test A pre-/postemergence plant response
Outline: as §1

[5] = test system: velvetleaf (Abutilon theophrasti); assay: Test A pre-/postemergence plant response
Outline: as §1

[6] = test system: wheat (Triticum aestivum); assay: Test A pre-/postemergence plant response
Outline: as §1

[7] = test system: canarygrass (Phalaris minor); assay: Test B postemergence plant response; details: Postemergence
Outline: (§2)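 Test compounds were applied postemergence to plants 2 to 18 cm tall (1- to 4-leaf stage). After 13 to 15 days in a greenhouse, each species was visually compared with untreated controls and rated 0 (no effect) to 100 (complete control).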

[8] = test system: chickweed (Stellaria media); assay: Test B postemergence plant response; details: Postemergence
Outline: as §2

[9] = test system: windgrass (Apera spica-venti); assay: Test B postemergence plant response; details: Postemergence
Outline: as §2

[10] = test system: winter barley (Hordeum vulgare); assay: Test B postemergence plant response; details: Postemergence
Outline: as §2

[11] = test system: barnyardgrass (Echinochloa crus-galli); assay: Test B flooded paddy test plant response
Outline: (§3)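 Step one: raise plants to 2 leaves. Step two: flood pots 3 cm over the soil and apply compound into the water, keeping this depth. Step three: after 13–15 greenhouse days, score visually versus controls, 0–100, where 100 means complete control.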

[12] = test system: ducksalad (Heteranthera limosa); assay: Test B flooded paddy test plant response
Outline: as §3

rice (Oryza sativa) = assay: Test B flooded paddy test plant response
Outline: as §3

[13] = test system: umbrella sedge (Cyperus difformis); assay: Test B flooded paddy test plant response
Outline: as §3

[14] = Postemergence, 125 g ai/ha, 0 to 100 scale, 0 no effect, 100 complete control
[15] = Postemergence, 500 g ai/ha, 0 to 100 scale, 0 no effect, 100 complete control
[16] = Preemergence, 125 g ai/ha, 0 to 100 scale (0 no effect, 100 complete control)
[17] = Preemergence, 500 g ai/ha, 0 to 100 scale (0 no effect, 100 complete control)
[18] = 31 g ai/ha, scale 0 to 100, 0 no effect, 100 complete control
[19] = Flood (flooded paddy test), 62 g ai/ha, scale 0 to 100, 0 no effect, 100 complete control
[20] = Flood (flooded paddy test), 125 g ai/ha, scale 0 to 100, 0 no effect, 100 complete control
[21] = Flood (flooded paddy test), 250 g ai/ha, scale 0 to 100, 0 no effect, 100 complete control
[22] = Flood, 31 g ai/ha, scale 0 to 100

## CCc1cc(-c2ccc(C(F)(F)F)cc2)nn1-c1c(OC(=O)OC(C)C)cnn(C)c1=O [Compound 12]
[1]; [14]
  Plant response rating, Barnyardgrass: 90
[1]; [15]
  Plant response rating, Barnyardgrass: 100
[1]; [16]
  Plant response rating, Barnyardgrass: 100
[1]; [17]
  Plant response rating, Barnyardgrass: 100
[2]; [14]
  Plant response rating, Crabgrass, Large: 90
[2]; [15]
  Plant response rating, Crabgrass, Large: 100
[2]; [16]
  Plant response rating, Crabgrass, Large: 100
[2]; [17]
  Plant response rating, Crabgrass, Large: 100
[3]; [14]
  Plant response rating, Morningglory: 0
[3]; [15]
  Plant response rating, Morningglory: 0
[3]; [16]
  Plant response rating, Morningglory: 0
[3]; [17]
  Plant response rating, Morningglory: 0
[4]; [14]
  Plant response rating, Pigweed: 0
[4]; [15]
  Plant response rating, Pigweed: 0
[4]; [16]
  Plant response rating, Pigweed: 0
[4]; [17]
  Plant response rating, Pigweed: 0
[5]; [14]
  Plant response rating, Velvetleaf: 0
[5]; [15]
  Plant response rating, Velvetleaf: 0
[5]; [16]
  Plant response rating, Velvetleaf: 0
[5]; [17]
  Plant response rating, Velvetleaf: 0
[6]; [14]
  Plant response rating, Wheat: 70
[6]; [15]
  Plant response rating, Wheat: 90
[6]; [16]
  Plant response rating, Wheat: 90
[6]; [17]
  Plant response rating, Wheat: 100
[7]; 16 g ai/ha, scale 0 to 100
  Plant response rating, Canarygrass: 100
[7]; [18]
  Plant response rating, Canarygrass: 100
[7]; 62 g ai/ha, scale 0 to 100
  Plant response rating, Canarygrass: 100
[7]; 125 g ai/ha, scale 0 to 100
  Plant response rating, Canarygrass: 100
[8]; 16 g ai/ha, scale 0 to 100
  Plant response rating, Chickweed: 0
[8]; [18]
  Plant response rating, Chickweed: 0
[8]; 62 g ai/ha, scale 0 to 100
  Plant response rating, Chickweed: 0
[8]; 125 g ai/ha, scale 0 to 100
  Plant response rating, Chickweed: 0
[9]; 16 g ai/ha, scale 0 to 100
  Plant response rating, Windgrass: 100
[9]; [18]
  Plant response rating, Windgrass: 100
[9]; 62 g ai/ha, scale 0 to 100
  Plant response rating, Windgrass: 100
[9]; 125 g ai/ha, scale 0 to 100
  Plant response rating, Windgrass: 100
[10]; 16 g ai/ha, scale 0 to 100, 0 no effect, 100 complete control
  Plant response rating, Barley: 80
[10]; [18]
  Plant response rating, Barley: 95
[10]; 62 g ai/ha, scale 0 to 100
  Plant response rating, Barley: 100
[10]; 125 g ai/ha, scale 0 to 100
  Plant response rating, Barley: 100
[11]; [19]
  Plant response rating, Barnyardgrass: 30
[11]; [20]
  Plant response rating, Barnyardgrass: 60
[11]; [21]
  Plant response rating, Barnyardgrass: 80
[11]; [22]
  Plant response rating, Barnyardgrass: 0
[12]; [19]
  Plant response rating, Ducksalad: 0
[12]; [20]
  Plant response rating, Ducksalad: 40
[12]; [21]
  Plant response rating, Ducksalad: 50
[12]; [22]
  Plant response rating, Ducksalad: 0
Rice (Oryza sativa); [19]
  Plant response rating, Rice: 20
Rice (Oryza sativa); [20]
  Plant response rating, Rice: 70
Rice (Oryza sativa); [21]
  Plant response rating, Rice: 80
Rice (Oryza sativa); [22]
  Plant response rating, Rice: 0
[13]; [19]
  Plant response rating, Sedge, Umbrella: 40
[13]; [20]
  Plant response rating, Sedge, Umbrella: 60
[13]; [21]
  Plant response rating, Sedge, Umbrella: 60
[13]; [22]
  Plant response rating, Sedge, Umbrella: 0

## Cc1nn(C)c(=O)c(-n2nc(-c3ccc(Cl)cc3)cc2C)c1O [Compound 15]
[1]; [14]
  Plant response rating, Barnyardgrass: 100
[1]; [15]
  Plant response rating, Barnyardgrass: 100
[1]; [16]
  Plant response rating, Barnyardgrass: 100
[1]; [17]
  Plant response rating, Barnyardgrass: 100
[2]; [14]
  Plant response rating, Crabgrass, Large: 90
[2]; [15]
  Plant response rating, Crabgrass, Large: 100
[2]; [16]
  Plant response rating, Crabgrass, Large: 80
[2]; [17]
  Plant response rating, Crabgrass, Large: 100
[3]; [14]
  Plant response rating, Morningglory: 0
[3]; [15]
  Plant response rating, Morningglory: 0
[3]; [16]
  Plant response rating, Morningglory: 0
[3]; [17]
  Plant response rating, Morningglory: 0
[4]; [14]
  Plant response rating, Pigweed: 0
[4]; [15]
  Plant response rating, Pigweed: 0
[4]; [16]
  Plant response rating, Pigweed: 0
[4]; [17]
  Plant response rating, Pigweed: 0
[5]; [14]
  Plant response rating, Velvetleaf: 0
[5]; [15]
  Plant response rating, Velvetleaf: 0
[5]; [16]
  Plant response rating, Velvetleaf: 0
[5]; [17]
  Plant response rating, Velvetleaf: 0
[6]; [14]
  Plant response rating, Wheat: 50
[6]; [15]
  Plant response rating, Wheat: 60
[6]; [16]
  Plant response rating, Wheat: 60
[6]; [17]
  Plant response rating, Wheat: 80
[7]; [18]
  Plant response rating, Canarygrass: 35
[7]; 62 g ai/ha, scale 0 to 100
  Plant response rating, Canarygrass: 35
[7]; 125 g ai/ha, scale 0 to 100
  Plant response rating, Canarygrass: 85
[8]; [18]
  Plant response rating, Chickweed: 0
[8]; 62 g ai/ha, scale 0 to 100
  Plant response rating, Chickweed: 0
[8]; 125 g ai/ha, scale 0 to 100
  Plant response rating, Chickweed: 0
[8]; 250 g ai/ha, scale 0 to 100
  Plant response rating, Chickweed: 0
[9]; [18]
  Plant response rating, Windgrass: 90
[9]; 62 g ai/ha, scale 0 to 100
  Plant response rating, Windgrass: 90
[9]; 125 g ai/ha, scale 0 to 100
  Plant response rating, Windgrass: 100
[9]; 250 g ai/ha, scale 0 to 100
  Plant response rating, Windgrass: 100
[10]; [18]
  Plant response rating, Barley: 10
[10]; 62 g ai/ha, scale 0 to 100
  Plant response rating, Barley: 10
[10]; 125 g ai/ha, scale 0 to 100
  Plant response rating, Barley: 90
[11]; [19]
  Plant response rating, Barnyardgrass: 15
[11]; [20]
  Plant response rating, Barnyardgrass: 40
[11]; [21]
  Plant response rating, Barnyardgrass: 60
[11]; [22]
  Plant response rating, Barnyardgrass: 0
[12]; [19]
  Plant response rating, Ducksalad: 0
[12]; [20]
  Plant response rating, Ducksalad: 80
[12]; [21]
  Plant response rating, Ducksalad: 100
[12]; [22]
  Plant response rating, Ducksalad: 0
Rice (Oryza sativa); [19]
  Plant response rating, Rice: 0
Rice (Oryza sativa); [20]
  Plant response rating, Rice: 15
Rice (Oryza sativa); [21]
  Plant response rating, Rice: 70
Rice (Oryza sativa); [22]
  Plant response rating, Rice: 0
[13]; [19]
  Plant response rating, Sedge, Umbrella: 50
[13]; [20]
  Plant response rating, Sedge, Umbrella: 60
[13]; [21]
  Plant response rating, Sedge, Umbrella: 70
[13]; [22]
  Plant response rating, Sedge, Umbrella: 0

## CCc1cc(-c2ccc(C(F)(F)F)cc2)nn1-c1c(O)c(C)nn(C)c1=O [Compound 16]
[1]; [14]
  Plant response rating, Barnyardgrass: 90
[1]; [15]
  Plant response rating, Barnyardgrass: 100
[1]; [16]
  Plant response rating, Barnyardgrass: 100
[1]; [17]
  Plant response rating, Barnyardgrass: 100
[2]; [14]
  Plant response rating, Crabgrass, Large: 90
[2]; [15]
  Plant response rating, Crabgrass, Large: 100
[2]; [16]
  Plant response rating, Crabgrass, Large: 90
[2]; [17]
  Plant response rating, Crabgrass, Large: 100
[3]; [14]
  Plant response rating, Morningglory: 0
[3]; [15]
  Plant response rating, Morningglory: 0
[3]; [16]
  Plant response rating, Morningglory: 0
[3]; [17]
  Plant response rating, Morningglory: 0
[4]; [14]
  Plant response rating, Pigweed: 0
[4]; [15]
  Plant response rating, Pigweed: 0
[4]; [16]
  Plant response rating, Pigweed: 0
[4]; [17]
  Plant response rating, Pigweed: 0
[5]; [14]
  Plant response rating, Velvetleaf: 0
[5]; [15]
  Plant response rating, Velvetleaf: 0
[5]; [16]
  Plant response rating, Velvetleaf: 0
[5]; [17]
  Plant response rating, Velvetleaf: 0
[6]; [14]
  Plant response rating, Wheat: 70
[6]; [15]
  Plant response rating, Wheat: 90
[6]; [16]
  Plant response rating, Wheat: 70
[6]; [17]
  Plant response rating, Wheat: 100
[7]; [18]
  Plant response rating, Canarygrass: 70
[7]; 62 g ai/ha, scale 0 to 100
  Plant response rating, Canarygrass: 95
[8]; [18]
  Plant response rating, Chickweed: 0
[8]; 62 g ai/ha, scale 0 to 100
  Plant response rating, Chickweed: 0
[8]; 125 g ai/ha, scale 0 to 100
  Plant response rating, Chickweed: 0
[8]; 250 g ai/ha, scale 0 to 100
  Plant response rating, Chickweed: 0
[9]; [18]
  Plant response rating, Windgrass: 90
[9]; 62 g ai/ha, scale 0 to 100
  Plant response rating, Windgrass: 100
[9]; 125 g ai/ha, scale 0 to 100
  Plant response rating, Windgrass: 100
[9]; 250 g ai/ha, scale 0 to 100
  Plant response rating, Windgrass: 100
[10]; [18]
  Plant response rating, Barley: 90
[10]; 62 g ai/ha, scale 0 to 100
  Plant response rating, Barley: 90
[10]; 125 g ai/ha, scale 0 to 100
  Plant response rating, Barley: 95
[10]; 250 g ai/ha, scale 0 to 100
  Plant response rating, Barley: 98
[11]; [19]
  Plant response rating, Barnyardgrass: 20
[11]; [20]
  Plant response rating, Barnyardgrass: 40
[11]; [21]
  Plant response rating, Barnyardgrass: 60
[11]; [22]
  Plant response rating, Barnyardgrass: 15
[12]; [19]
  Plant response rating, Ducksalad: 0
[12]; [20]
  Plant response rating, Ducksalad: 0
[12]; [21]
  Plant response rating, Ducksalad: 0
[12]; [22]
  Plant response rating, Ducksalad: 0
Rice (Oryza sativa); [19]
  Plant response rating, Rice: 20
Rice (Oryza sativa); [20]
  Plant response rating, Rice: 45
Rice (Oryza sativa); [21]
  Plant response rating, Rice: 80
Rice (Oryza sativa); [22]
  Plant response rating, Rice: 0
[13]; [19]
  Plant response rating, Sedge, Umbrella: 30
[13]; [20]
  Plant response rating, Sedge, Umbrella: 30
[13]; [21]
  Plant response rating, Sedge, Umbrella: 45
[13]; [22]
  Plant response rating, Sedge, Umbrella: 0

Source: patent US20100267561A1, “HERBICIDAL PYRIDAZINONE DERIVATIVES” (priority 2007, published 2010)
